In patent publication US20100048575A1, “NOVEL TETRACYCLIC INHIBITORS OF CYSTEINE PROTEASES, THE PHARMACEUTICAL COMPOSITIONS THEREOF AND THEIR THERAPEUTIC APPLICATIONS” (priority 2006, published 2010):
pIC50: −log10 of the molar value.

Columns and labels:
USP7 = biological target: T1, USP7 (Homo sapiens, UniProt Q93009); experiment: USP7 activity assay (Ub-AMC); assay type: biochemical; settings: 400 nM Ub-AMC, 152 pM enzyme, 30 min pre-incubation, 60 min at 37° C., sigmoidal fit; read-out: USP7 (inhibition of cysteine protease activity)
T1 construct: His tag (from vector pFastBac-HT) (N); made in house; host or cells: insect cells (Sf9 or High Five), baculovirus
T1 sequence (Q93009 whole entry): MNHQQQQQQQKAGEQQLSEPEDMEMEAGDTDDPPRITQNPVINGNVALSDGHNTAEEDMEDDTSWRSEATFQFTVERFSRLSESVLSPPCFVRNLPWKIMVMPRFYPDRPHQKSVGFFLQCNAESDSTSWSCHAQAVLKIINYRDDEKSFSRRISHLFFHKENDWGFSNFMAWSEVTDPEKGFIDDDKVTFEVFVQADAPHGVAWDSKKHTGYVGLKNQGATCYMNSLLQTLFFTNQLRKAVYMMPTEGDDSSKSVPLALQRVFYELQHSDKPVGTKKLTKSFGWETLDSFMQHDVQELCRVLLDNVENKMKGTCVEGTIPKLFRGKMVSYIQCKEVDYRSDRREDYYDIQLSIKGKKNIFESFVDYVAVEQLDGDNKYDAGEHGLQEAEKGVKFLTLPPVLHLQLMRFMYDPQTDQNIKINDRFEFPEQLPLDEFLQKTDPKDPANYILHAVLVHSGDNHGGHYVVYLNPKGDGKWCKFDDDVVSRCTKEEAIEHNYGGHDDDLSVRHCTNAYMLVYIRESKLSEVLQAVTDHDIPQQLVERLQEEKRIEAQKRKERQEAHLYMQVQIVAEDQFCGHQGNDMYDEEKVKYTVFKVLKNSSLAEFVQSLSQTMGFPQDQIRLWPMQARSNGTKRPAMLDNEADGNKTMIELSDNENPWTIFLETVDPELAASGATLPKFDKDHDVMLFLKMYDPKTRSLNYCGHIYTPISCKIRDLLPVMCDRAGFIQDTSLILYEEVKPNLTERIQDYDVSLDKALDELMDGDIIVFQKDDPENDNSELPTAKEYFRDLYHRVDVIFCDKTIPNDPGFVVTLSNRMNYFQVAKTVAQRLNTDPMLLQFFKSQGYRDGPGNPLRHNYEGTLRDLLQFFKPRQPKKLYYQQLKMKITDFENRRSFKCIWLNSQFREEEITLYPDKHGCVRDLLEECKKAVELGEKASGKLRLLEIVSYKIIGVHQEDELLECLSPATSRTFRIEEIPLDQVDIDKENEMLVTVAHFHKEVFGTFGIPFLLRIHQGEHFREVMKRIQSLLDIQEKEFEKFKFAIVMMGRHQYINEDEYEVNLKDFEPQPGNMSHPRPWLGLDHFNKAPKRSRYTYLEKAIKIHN
Excerpt: The cDNA encoding USP7 was obtained by PCR amplification from placenta mRNA. USP7 cDNA was subcloned by PCR into a baculovirus expression vector (pFastBac-HT; Invitrogen). A cDNA encoding a mutated USP7 was generated by mutagenic PCR. The corresponding protein encodes a cysteine to alanine substitution at residue 223. The sequences were ascertained by sequencing of the entire open reading frame. Bacmids encoding […] were generated following DH10bac transposition. The corresponding bacmids were transfected into insect cells (Sf9). Viruses were recovered from culture supernatant and amplified twice. Insect cells (Sf9 or High Five; Invitrogen) were infected for 72 hours. Total cell lysates were harvested and lyzed in lysis buffer-(Tris HCl 50 mM pH7.6; 0.75% NP40; 500 mM NaCl; 10% glycerol; 1 mM DTT; 10 mM imidazole; Protease Inhibitor Cocktail; AEBSF 20 μg.ml^−1; Aprotinin 10 μg.ml^−1). Proteins were affinity purified on metal affinity resins (Talon Metal affinity resin; BD Biosciences). Bound materials were extensively washed in wash buffer (50 mM Sodium Phosphate pH7.0; 300 mM NaCl; 10 mM imidazole; 0.5% Triton X-100; 10% glycerol) and eluted from the resin in 250 mM imidazole-containing wash buffer. Proteins were dialyzed in dialysis buffer (Tris HCl pH 7.6 20 mM; NaCl 200 mM; DTT 1 mM; EDTA 1 mM; 10% Glycerol). Proteins purifications were analyzed on 4-12% NuPAGE (Invitrogen).
USP7 was diluted in USP buffer (50 mM Tris HCl; 0.5 mM EDTA; 5 mM DTT; 0.01% Triton X-100; Bovine Serum Albumin 0.05 mg.ml^−1 pH7.6). Compounds stocks (100 mM) were stored at −20° C. in DMSO. Compounds were tested at the following final concentrations: 100 μM; 33.3 μM; 11.1 μM; 3.7 μM; 1.23 μM; 412 nM; 137 nM; 45.7 nM; 15.2 nM; 5 nM.
(§1) Reactions were performed as duplicates in Black LJL 96 well plates (HE microplates; Molecular Devices; 20 μl final reaction volume). The substrate concentration for USP7 was 400 nM Ub-AMC (Chem. Biol., 2003, 10, p. 837-846) (Boston Biochem). The concentrations of the enzyme (USP7) in specificity assays was 152 pM. The concentrations were determined in order to perform specificity assays under initial velocities at fixed substrate concentration. Compounds were pre-incubated with enzymes for 30 minutes at 25° C. Reactions were initiated by addition of substrate to the plates containing the enzymes (+/−compounds) diluted in assay buffer. Reactions were incubated for 60 minutes at 37° C. Reactions were stopped by adding acetic acid (100 mM final). Readings were performed on a Pherastar Fluorescent Reader (BMG). λ Emission 380 nm; λ Excitation=460 nm. Data (mean values +/−standard deviation) were analyzed as % of control (no compound) and plotted as percentage versus the Log of the compound concentration using GraphPad (Prism). Data were fitted to a sigmoidal model (variable slope).

USP5 = biological target: T2, USP5 (Homo sapiens, UniProt P45974); experiment: USP5 activity assay (Ub-AMC); assay type: biochemical; settings: 400 nM Ub-AMC, 300 pM enzyme, 30 min pre-incubation, 60 min at 37° C., sigmoidal fit; read-out: USP5 (inhibition of cysteine protease activity)
T2 sequence (P45974 1-858): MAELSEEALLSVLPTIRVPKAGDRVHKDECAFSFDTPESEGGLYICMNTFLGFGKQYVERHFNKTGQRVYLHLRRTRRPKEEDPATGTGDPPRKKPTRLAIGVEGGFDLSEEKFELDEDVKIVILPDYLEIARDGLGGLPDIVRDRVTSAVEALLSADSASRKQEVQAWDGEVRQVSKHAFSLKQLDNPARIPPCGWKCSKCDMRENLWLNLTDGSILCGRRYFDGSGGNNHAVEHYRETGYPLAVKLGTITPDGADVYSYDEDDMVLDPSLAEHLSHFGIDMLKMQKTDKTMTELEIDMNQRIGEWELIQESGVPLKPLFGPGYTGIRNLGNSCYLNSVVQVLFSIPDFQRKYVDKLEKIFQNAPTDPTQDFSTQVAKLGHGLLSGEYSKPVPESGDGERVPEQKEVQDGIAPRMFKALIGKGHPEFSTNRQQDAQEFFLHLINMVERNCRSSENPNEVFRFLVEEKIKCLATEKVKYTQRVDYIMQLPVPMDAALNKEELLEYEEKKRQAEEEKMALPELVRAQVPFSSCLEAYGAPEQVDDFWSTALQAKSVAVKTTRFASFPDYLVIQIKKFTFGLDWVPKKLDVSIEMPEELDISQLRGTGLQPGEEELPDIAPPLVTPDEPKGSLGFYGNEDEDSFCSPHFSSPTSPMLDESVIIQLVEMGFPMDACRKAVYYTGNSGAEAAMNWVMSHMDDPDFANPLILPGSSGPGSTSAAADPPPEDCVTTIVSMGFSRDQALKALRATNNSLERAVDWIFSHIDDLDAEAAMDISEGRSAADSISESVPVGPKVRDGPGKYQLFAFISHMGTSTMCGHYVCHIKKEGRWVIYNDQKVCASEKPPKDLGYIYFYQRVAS
Description: USP5 was diluted in USP buffer (50 mM Tris HCl; 0.5 mM EDTA; 5 mM DTT; 0.01% Triton X-100; Bovine Serum Albumin 0.05 mg.ml^−1 pH7.6). Compounds stocks (100 mM) were stored at −20° C. in DMSO.
as §1, with “USP5” for “USP7”, “Ub-AMC” for “Ub-AMC (Chem. Biol., 2003, 10, p. 837-846)”, “(USP5)” for “(USP7)”, “300” for “152”

Row | pIC50 (USP7) | pIC50 (USP5) | SMILES
1 | 5.40 | 5.74 | CON=C1c2ccccc2-c2nn3c(C)nnc3nc21 (mixture of isomers) [5a, 3-Methyl-1,2,3a,4,10-pentaaza-cyclopenta[b]fluoren-9-one O-methyl-oxime]
2 | 5.50 | 5.94 | C=CCON=C1c2ccccc2-c2nn3c(C)nnc3nc21 (mixture of isomers) [5b, 3-Methyl-1,2,3a,4,10-pentaaza-cyclopenta[b]fluoren-9-one O-allyl-oxime]
3 | 5.27 | 5.85 | C=CCON=C1c2ccccc2-c2nn3c(CCCC)nnc3nc21 (mixture of isomers) [5d, 3-Butyl-1,2,3a,4,10-pentaaza-cyclopenta[b]fluoren-9-one O-allyl-oxime]
4 |  | 4.27 | CCCCCCCCCCON=C1c2ccccc2-c2nn3nnnc3nc21 (mixture of isomers) [8a, 1,2,3,3a, 4,10-Hexaaza-cyclopenta[b]fluoren-9-one O-decyl-oxime]
5 | 6.33 |  | COCCON=C1c2ccccc2-c2nn3nnnc3nc21 (mixture of isomers) [8b, 1,2,3,3a, 4,10-Hexaaza-cyclopenta[b]fluoren-9-one O-(2-methoxy-ethyl)-oxime]
6 | 5.75 | 6.33 | c1ccc(OCCCON=C2c3ccccc3-c3nn4nnnc4nc32)cc1 (mixture of isomers) [8c, 1,2,3,3a,4,10-Hexaaza-cyclopenta[b]fluoren-9-one O-(3-phenoxy-propyl)-oxime]
7 | 5.32 |  | CCc1nnc2nc3c(nn12)-c1ccccc1C3=NOC (mixture of isomers) [10b, 3-Ethyl-1,2,3a,4,10-pentaaza-cyclopenta[b]fluoren-9-one O-methyl-oxime]
8 | 5.51 |  | CCON=C1c2ccccc2-c2nn3c(CC)nnc3nc21 (mixture of isomers) [10d, 3-Ethyl-1,2,3a,4,10-pentaaza-cyclopenta[b]fluoren-9-one O-ethyl-oxime]
9 | 5.49 | 5.92 | C=CCON=C1c2ccccc2-c2nn3c(CC)nnc3nc21 (mixture of isomers) [10f, 3-Ethyl-1,2,3a,4,10-pentaaza-cyclopenta[b]fluoren-9-one O-allyl-oxime]
10 | 5.14 |  | CCc1nnc2nc3c(nn12)-c1ccccc1C3=NOCc1ccccc1 (mixture of isomers) [10h, 3-Ethyl-1,2,3a,4,10-pentaaza-cyclopenta[b]fluoren-9-one O-benzyl-oxime]
11 | 6.52 |  | C=CCON=C1c2ccccc2-c2nn3nnnc3nc21 (mixture of isomers) [compound 6, 1,2,3,3a,4,10-hexaaza-cyclopenta[b]fluoren-9-one O-allyl-oxime]
12 | 6.18 |  | ON=C1c2ccccc2-c2nn3nnnc3nc21 (mixture of isomers) [compound 7, 1,2,3,3a,4,10-hexaaza-cyclopenta[b]fluoren-9-one oxime]
